Results from patent US10624913B2, “Diagnostics and methods for treatment of non-alcoholic hepatic steatosis and hepatic steatohepatitis, and prevention of complications thereof” (VOLANT HOLDINGS GMBH, priority 2011, dated 2020).
Structures can show the parent of a compound that is named as a salt.

Columns and labels:
[1] = tested on: patients with multiple manifestations of MetS; test: Treatment comparison of RYGB, Brake or atorvastatin (Lipitor), each added to standard of care (Example 3); type: in vivo, human; details: for LDL percent change: from baseline
Excerpt: FIG. 20. […] All patients were given 10 gm Brake™ once Daily, orally, 4 hrs prior to their main meal Pertinent demographic and clinical data were retrieved from medical records for all patients, and shown in FIG. 21. Variables included age, gender, body weight, lipid panel (low-density lipoprotein [LDL], high-density lipoprotein [HDL], triglycerides [TG], and total cholesterol [TC]), HbA1c, and liver function tests (aspartate aminotransferase [AST] and alanine aminotransferase [ALT]). Patients were followed monthly for up to one year to assess changes in the above stated variables. […] From the beginning, the patients who began the study with abnormal findings were separated from the patients with initially normal values and those with abnormal findings were further analyzed to define the magnitude of change as well as the percent change from baseline pre-therapy. Descriptive statistics were used in analyzing the baseline characteristics of each cohort. In addition to counts of how many patients had values above threshold, all descriptive characteristics are reported for each group as percentages and mean values, or where appropriate, the binary distribution percentages. […] This testing was applied to case and control cohorts: (a) using data for all treated patients, (b) using data for only those with abnormal range baselines (c) using cases where the initial value was within the normal range for the laboratory. Data were subsequently analyzed for percent change by biomarker from both of these two perspectives. Comparisons between groups were performed by mixed analysis of variances with a post hoc correction for multiple comparisons to analyze differences between treatments. Data are presented as mean±standard deviation (unless otherwise specified). A p<0.05 was considered evidence of significant change. All statistical analyses were conducted using SAS version 9.4 (SAS institute, Cary, N.C.).

Hepatitis C virus = test: Hepatitis C patient cases: viral load; type: in vivo, human; details: Patient E1 on combination; words
Protocol: Case 1: A Hepatitis C Patient with Moderate Viral Load Treated with Brake™ Alone, with the Goal to Evaluate the Secondary Antiviral Impact of Improving the Hepatic Steatosis
Patient M1 was a person with a normal BMI.
They were not on Hepatitis C treatment since 2007; no antiviral drugs in the 3 years prior to Brake™ therapy. Treatment Course: Aphoeline Brake™ (formulation II) was added to their treatment at their second visit.
A Hepatitis C Patient with Combination Treatment of Brake™ and pegIFN/Riba, a Test of the Ability of Combinations to Reduce Viral Load Over that of pegIFN/Riba Alone
After two months with only moderate viral load response to this increased dosage, the patient had the addition of 10 gm per day of Aphoeline Brake™ added to their maximal dose pegIFN/Riba regimen.
Case 3: A Hepatitis C Patient with Advanced Cirrhosis, Treated with Brake™ Alone, a Test of the Ability to Control Hepatic Steatosis in the Face of Minimal Action on the Viral Load
Patient L1 is a Overweight (5′3″ 202 lb) but not overtly T2D […] with Hepatitis C genotype 1a since ˜2002. They had previously been treated with pegIFN/Riba but had been considered a failure in 2005. They have been untreated for Hepatitis C since that time. […] Their bilirubin was 1.5 when seen and they were on the liver transplant list. Their chronic medications included spironolactone, rifaximin, and nexium. […]

[2] = tested on: metabolic syndrome / cardiovascular risk (FS index, CV index); test: Cross comparison of FS index and CV index in treated patients (Example 2); type: in vivo, human; details: before, at 6 and 12 months, added to SoC; words
Protocol: Here we compare the same patients using FS index and CV index, in order to establish concordance in the risk scoring. We also include patients with MIs as examples of patients with CV events. For each of these patients, the FS index was calculated and the CV index was calculated, using an electronic spreadsheet designed for this purpose, and with the goal to evaluate concordance in the risk scoring. We also include patients with MIs as examples of patients with CV events.
To assess changes in metabolic syndrome, patient characteristics were analyzed using the FS Index.(44) Briefly, the FS index is a method for assessing cardiovascular risk associated with the glucose supply side in metabolic syndrome and T2D patients. The FS index is obtained from the individual patient's biological parameters, wherein a FS index value of greater than 60 is indicative that the individual is in need of therapy for metabolic syndrome or at risk for at least one cardiovascular complication associated with metabolic syndrome.

[3] = tested on: ileal brake (PYY, motilin); details: ileal infusions in different amounts; words; cited from earlier work
[4] = tested on: patients with incident AF; test: Longitudinal cohort study of atrial fibrillation patients with or without warfarin; type: in vivo, human; details: adjusted for age and CHADS2; 95% CI 0.85, 2.13; not statistically significant
Protocol: We performed a longitudinal, cohort study with pharmacy and medical claims from 1997 to 2008 from a local health maintenance organization. Participants were identified with incident AF irrespective of warfarin status and followed through their duration within the database. Three clinical outcome measures were assessed including stroke, myocardial infarction, and bleeding. A neural net model was developed to identify patients at high risk of clinical event and defined to be an ‘enriched’ patient. The model defines the enrichment based on the top 10 minimum mean square error (MMSE) output parameters that describe the three clinical outcomes. The MMSE ranks the parameters in order from best to worst predictability when modeling the outputs. Predictors and outcome measures were ascertained with cox proportional hazards models.

[5] = decline from pre-treatment baseline, added to SoC, FIG. 21

In the case of `CC(C)c1c(C(=O)Nc2ccccc2)c(-c2ccccc2)c(-c2ccc(F)cc2)n1CC[C@@H](O)C[C@@H](O)CC(=O)O` (relative stereo) [atorvastatin, [R—(R*,R*)]-2-(4-fluorophenyl)-β,δ-dihydroxy-5-(l-methylethyl)-3-phenyl-4-[(phenylamino)-carbonyl]-1H-pyrrole-1-heptanoic acid; calcium salt (2:1) trihydrate], the Total cholesterol decline ([1]; abnormal baseline cases, 6 and 12 months of treatment) is reported as 3.2%, the Body weight decline ([1]; at 12 months) is reported as 2.6% and the ALT decline [1, 5] is reported as “essentially no decline”. For the same compound, the AST decline [1, 5] was 3.5%, the Triglyceride concentration decline [1, 5] was 18% and the HDL values ([1]; high dose (40 mg) atorvastatin alone, words) was “decreased”. For the same compound, the LDL percent change ([1]; high dose (40 mg) atorvastatin, FIG. 21) was −22.7%, the LDL percent change ([1]; low dose atorvastatin, FIG. 21) was −10.1% and the HDL values ([1]; low dose atorvastatin, words) was “increased”. The “Changes baseline to post treatment in triglycerides” value ([1]; words) was “negligible” and the “Changes in ALT and AST over pre treatment baseline” value ([1]; words, atorvastatin 10 mg or 40 mg) was “Only minor changes”.

In the case of `COc1cc(/C=C/C(=O)CC(=O)/C=C/c2ccc(O)c(OC)c2)ccc1O` [curcumin], the “Hepatitis C virus status / control of viral load” value (Hepatitis C virus) is reported as “loss of control for viral load”.

For `CN(C)C(=N)N=C(N)N` [metformin], the “Changes in FS index over pre-treatment baseline” value [2] was “did not change the FS index”.

In the case of `CCCCCCCC/C=C\CCCCCCCC(=O)O` [oleic acid], the PYY levels [3] is listed as “dose-dependent increase” and the motilin levels [3] is listed as “borderline decrease”.

With `CC(=O)CC(c1ccccc1)c1c(O)c2ccccc2oc1=O` (stereo not shown) [warfarin] the “risk of negative clinical outcomes (aHR)” value [4] was 1.35.
